We go through 1 compound from publication PMC11574021, “CEP192 localises mitotic Aurora-A activity by priming its interaction with TPX2” (The EMBO Journal, 2024).

Molecules are shown by their SMILES.

Holding throughout (type): cell-based, Homo sapiens
In assay [1] the test system is TCTP-pS46 in RPE1 p53-/- cells. Nature of the assay: Western blot densitometry, TCTP-pS46, RPE1 p53-/-. Conditions: mitotic RPE1 p53-/- lysates, inhibitor 30 min. The protocol:
(§1) For measuring monopolar spindle diameter and counting centriolar foci by immunofluorescence, cells were treated with 10 µM STLC for 1 h and 4 h prior to fixation, respectively.
(§2) Drugs were resuspended in DMSO to the stock concentrations indicated in square brackets.
(§3) Cells were lysed on ice for 30 min in lysis buffer (50 mM tris pH 8.0, 300 mM NaCl, 0.2%(v/v) NP-40, 10%(v/v) glycerol, protease inhibitor cocktail C, phosphatase inhibitor cocktail 3 (Sigma, 1:200 dilution), 100 nM okadaic acid (Enzo, ALX-350-003-C100)). Lysates were then centrifuged at 14,000 × g, 15 min, 4 °C, the supernatants were transferred to a fresh tube, and the pellet was discarded. Protein concentrations were measured by Bradford assay using Protein Assay Dye Reagent Concentrate (Bio-Rad Laboratories, 5000006). NuPage LDS sample buffer, supplemented with NuPAGE sample reducing agent (Invitrogen) were added prior to boiling for 10 min at 90 °C. […] Nitrocellulose was then blocked in 5% milk (wt/v) in TBS, 0.1% Tween (v/v) (TBST) for 1 h. Primary and secondary antibodies were diluted in 5% milk, TBST and incubated overnight at 4 °C or for 1 h at room temperature, respectively. […]
(§4) Densitometric quantification of western blots was also performed in ImageJ. Intensity was measured in a rectangular region of interest (ROI) around each band. […] An adjacent region was also measured to account for background intensity.
(A western blot detects proteins with antibodies after separation by electrophoresis.)

For the next assay, the system named is Eg5 in RPE1 p53-/- cells. The assay can be described thus: Immunofluorescence, Eg5 spindle signal intensity, RPE1 p53-/-. The conditions noted are these: Aurora-A inhibitor 30 min (500 nM). On the procedure: (§5) As noted in the figures, the following drugs were incubated with cells for 30 min at 37 °C: Aurora-B-i ZM447439 2 µM [10 mM], PLK1-I BI2536 1 µM [10 mM] and Aurora-A-i MLN8237 [5 mM] was used at 250 and 500 nM in U251 and RPE1 cells, respectively. Drugs were resuspended in DMSO to the stock concentrations indicated in square brackets. BI2536 (HY-50698), MLN8237 (HY-10971) and ZM447439 (HY-10128) were all purchased from MedChemExpress. For western blotting, a 20-min pre-treatment with proteasome inhibitor (20 µM MG-132, MerckMillipore, 47490 [20 mM]) was required prior to the addition of DMSO control or kinase inhibitors. This prevented mitotic exit as a consequence of checkpoint override following Aurora-A and Aurora-B inhibitor addition.
(§6) For siRNA depletion, 1 × 10^5 cells were seeded in six-well plates and transfected as described above for 48 h prior to fixation. For all other experiments, 2.5 × 10^5 cells were seeded in six-well plates and grown for 24 h before fixation. All cells were grown on 12 mm diameter glass coverslips (VWR, 631–1577). […]
(§7) For CEP192, LATS2-pS83, PCNT, PLK1 and γ-tubulin intensity, a 20-pixel diameter circle was centred over each centrosome and the intensity measured. […]

Assay [2] has as its system PLK1 in RPE1 p53-/- cells. The assay can be described thus: Immunofluorescence, PLK1 centrosomal signal intensity, RPE1 p53-/-. The conditions noted are these: Aurora-A inhibitor 30 min. The protocol: as §5, §6, §7
Another assay concerns γ-tubulin in RPE1 cells. The assay can be described thus: Immunofluorescence, γ-tubulin centrosomal signal intensity, RPE1. Conditions: RPE1 p53-/-, Aurora-A inhibitor 30 min. On the procedure: as §5, §6, §7
Assay [3] concerns PLK1-pT210 in RPE1 p53-/- cells. Nature of the assay: Western blot densitometry, PLK1-pT210, RPE1 p53-/-. Conditions: mitotic RPE1 p53-/- lysates, inhibitor 30 min. On the procedure: as §1, §2, §3, §4

With `COc1cc(Nc2ncc3c(n2)-c2ccc(Cl)cc2C(c2c(F)cccc2OC)=NC3)ccc1C(=O)O` [Alisertib], in assay [1], the “phosphorylation of TCTP (pS46)” value is “decreased”. Moreover, in the assay with Eg5 in RPE1 p53-/- cells, the “spindle levels of Eg5” value is on record as “decrease in spindle levels of Eg5”. Also, in assay [2], the “centrosomal Plk1 levels” value is listed as “negative trend”. The “centrosomal γ-tubulin” value in the assay on γ-tubulin in RPE1 cells is “significant drop in centrosomal γ-tubulin”. For the same compound, the “T-loop phosphorylation of PLK1 (pT210)” value in assay [3] is on record as “decreased”.
